Results as given in US10925890B2, “Use of dextran sulfate” (TX MEDIC AB, priority 2014, dated 2021).
Entries after “also recorded” stand apart in the source; their conditions may differ.

Assays:
tMCAO rat-stroke model [1] = assay: Cerebral blood flow assessment (Flow-R Laser Doppler), tMCAO rat; format: in vivo; details: day 29
Protocol: (§1) Transient middle cerebral artery occlusion was performed according to the method previously described in Stroke 29, 2162-2170 (1998). The right common carotid artery (CCA) was exposed through a midline neck incision and carefully dissected free from surrounding nerves and fascia—from its bifurcation to the base of the skull. The occipital artery branches of the external carotid artery (ECA) were then isolated, and these branches were dissected and coagulated. The ECA was dissected further distally and coagulated along with the terminal lingual and maxillary artery branches, which was then divided. The internal carotid artery (ICA) was isolated and carefully separated from the adjacent vagus nerve, and the pterygopalatine artery was ligated close to its origin with a 5-0 nylon suture (SMI, Belgium). Next a 4-0 silk suture was tied loosely around the mobilized ECA stump, and a 4 cm length of 4-0 monofilament nylon suture (the tip of the suture was blunted by using a flame, and the suture was coated with polylysine, prior to insertion) was inserted through the proximal ECA into the ICA and thence into the circle of Willis, effectively occluding the MCA. […]
Evaluation of the blood flow on the brain cortex and vessel constriction was carried out using Flow-R Laser Doppler system, in which intracranial blood flow and vessels diameter (constriction/dilatation) was monitored. […]

[2] = Adverse effects / general health, mouse hind-limb ischemia study; format: in vivo; details: 10 or 30 mg/kg s.c., up to day 35
Protocol: The collective data of the study confirmed the therapeutic efficacy of dextran sulfate given s.c. for the treatment of occlusive peripheral arterial disease in the Balb/c mouse animal model.
No adverse effect on general health was recorded in any of the groups. […] The findings reflect changes in blood vessel morphology, i.e. capillaries density increase, and blood vessels angiogenesis.

tMCAO rat-stroke model [3] = assay: Forelimb placing test, tMCAO rat; format: in vivo
Protocol: as §1
For each subtest, animals were scored as followed: • 0.0=immediate response • 0.5=response within 2 seconds • 1.0=response of 2-3 seconds • 1.5=response of >3 seconds • 2.0=no response

[4] = system: rat model of myocardial infarction; assay: Infarct size (Masson's trichrome), rat myocardial infarction model; format: in vivo; details: 35 days after MI induction
Protocol: The myocardial infarction model in rat involved ligations of the left coronary artery permanently with an intramural stitch. The surgery caused obstruction of the blood flow and subsequently to severe ischemic damage and cardiac walls infarct.
On the day of surgery the animals were anesthetized with a combination of 90 mg/kg ketamine and 10 mg/kg xylazine. In order to induce MI, under anesthesia and analgesia, the rat chest was opened by left thoracotomy, the pericardium was removed and the proximal left coronary artery was permanently occluyded with an intramural stitch (Circulation 117, 1388-1396 (2008)). Two hours post surgery, each animal in all treated groups were injected s.c. with dextran sulfate or saline vehicle according to Table 11.
On day 36 after MI induction, the rats were sacrificed by CO2 inhalation and the hearts were harvested and fixed in 4% buffered Formalin solution. […]
For the purpose of MI size identification, Masson's Trichrome Staining was used. […] The sections were visualized in a computer-imaging system and infarct size was marked and calculated using the ImageJ program. Infarct size was expressed as percentage of infarct area (unstained) versus the total left ventricle area. For each animal, five serial sections including one containing the ligature were analyzed and the mean value of all sections for each heart was calculated. […]

[5] = system: Rat Hind-Limb Ischemia Model; assay: Blood flow by non-contact LASER Doppler, rat hind-limb ischemia; format: in vivo; details: for Mean change in blood flow from Day 0 to Day 28: vehicle 14.8
Protocol: The femoral artery and vein were ligated twice with 4-0 silk thread and transected between the ligatures. The wound was closed with 3-0 silk thread and the rats were allowed to recover.
Animals in group 4M and 5M were injected s.c. once on Day 8, see Table 12.
Blood flows in legs from both sides were measured with a non-contact LASER Doppler before surgery on Day −1 and on Days: 1, 7, 14, 21 and 28 post operation. Blood flow measurements were expressed as the ratio of the flow in the ischemic limb to that in the normal limb.

[6] = system: Critical Hind-Limb Ischemia Mouse Model; assay: In vivo assessment of limb function, mouse hind-limb ischemia
Protocol: Semi-quantitative assessment of impaired use of the ischemic limb was performed once a week post-surgery using the following scale, see Table 7.
Limb function was graded as “Not applicable” in case of partial or full limb amputation. In such case blood flow measurements was not included in the statistical analysis.

[7] = day 7 (before treatment), group 2M, 10 mg/kg 3 times/week
[8] = day 7 (before treatment), group 3M, 30 mg/kg 3 times/week
[9] = day 7 (before treatment), group 4M, 30 mg/kg 1 time/week
[10] = day 35, group 2M, 10 mg/kg s.c. 3 times/week
[11] = day 35, group 3M, 30 mg/kg s.c. 3 times/week
[12] = day 35, group 4M, 30 mg/kg s.c. 1 time/week

Dextran sulfate
Vessels diameter ratio versus control (tMCAO rat-stroke model [1]): increased
Cerebral blood perfusion rate versus control vehicle-treated group (tMCAO rat-stroke model [1]; groups 2M and 3M, damaged hemisphere): Statistically significant improvement
Adverse effects in the treated animals [2]: did not cause any adverse effects
Forelimb placement test compared to vehicle control (tMCAO rat-stroke model [3]; all treated rats, starting on day 14 up to day 28): statistically significant improvement
Forelimb placement test, improvement in sensory motor deficits (tMCAO rat-stroke model [3]; group 3M (15 mg/kg daily), first testing on day 7): reached statistical significance
Infarct size / infarct volume, treatment group 2M vs control group 1M ([4]; 15 mg/kg s.c. 3 times a week for 3 weeks): significant difference; also recorded: significantly decreased the infarct volume
Average infarct size compared to untreated control group ([4]; all treatment groups (15 or 3 mg/kg s.c.)): smaller average infarct size
Mean change in blood flow from Day 0 to Day 28 ([5]; group 2M, 30 mg/kg s.c. 3 times a week starting on Day 8): 47.7%
Mean change in blood flow from Day 0 to Day 28 ([5]; group 3M, 30 mg/kg (as printed in Table 12) s.c. 3 times a week starting on Day 8): 39.1%
Mean change in blood flow from Day 0 to Day 28 ([5]; group 4M, 30 mg/kg s.c. administered once): 44.0%
Mean change in blood flow from Day 0 to Day 28 ([5]; group 5M, 3 mg/kg s.c. administered once): 41.0%
Ratio of blood flow HLI-injured versus non-injured leg, treated groups vs control ([5]; groups 2M, 3M, 4M and 5M vs 1M, Day 14 through Day 28): statistically significant differences
Limb function score (0-3, 3 worst) ([6]; 10 or 30 mg/kg, 1x/w or 3x/w from day 8, from day 21 and onward, two-way ANOVA): significant improvement
Incidence of mice with limb function score 0 [6, 7]: 0.0%
Incidence of mice with limb function score 1 [6, 7]: 0.0%
Incidence of mice with limb function score 2 [6, 7]: 21.4%
Incidence of mice with limb function score 3 [6, 7]: 79.6%
Incidence of mice with limb function score 0 [6, 8]: 0.0%
Incidence of mice with limb function score 1 [6, 8]: 0.0%
Incidence of mice with limb function score 2 [6, 8]: 21.4%
Incidence of mice with limb function score 3 [6, 8]: 79.6%
Incidence of mice with limb function score 0 [6, 9]: 0.0%
Incidence of mice with limb function score 1 [6, 9]: 0.0%
Incidence of mice with limb function score 2 [6, 9]: 7.1%
Incidence of mice with limb function score 3 [6, 9]: 92.9%
Incidence of mice with limb function score 0 [6, 10]: 50.0%
Incidence of mice with limb function score 1 [6, 10]: 42.9%
Incidence of mice with limb function score 2 [6, 10]: 7.1%
Incidence of mice with limb function score 3 [6, 10]: 0.0%
Incidence of mice with limb function score 0 [6, 11]: 72.4%
Incidence of mice with limb function score 1 [6, 11]: 21.5%
Incidence of mice with limb function score 2 [6, 11]: 7.1%
Incidence of mice with limb function score 3 [6, 11]: 0.0%
Incidence of mice with limb function score 0 [6, 12]: 69.2%
Incidence of mice with limb function score 1 [6, 12]: 30.8%
Incidence of mice with limb function score 2 [6, 12]: 0.0%
Incidence of mice with limb function score 3 [6, 12]: 0.0%
